Reference: ChEMBL document CHEMBL1201862, “PubChem BioAssay data set” (2004)
Calls of active or inactive are those of the source.

How the values were obtained:
[1] = biological target: T1, Leucine aminopeptidase (Plasmodium falciparum 3D7, UniProt Q8IL11); assay: P. falciparum M17LAP inhibitors, primary screen, biochemical, fluorogenic H-Leu-NHMec substrate, 1536-well (AID 1619); type: functional
T1 sequence (Q8IL11 whole entry): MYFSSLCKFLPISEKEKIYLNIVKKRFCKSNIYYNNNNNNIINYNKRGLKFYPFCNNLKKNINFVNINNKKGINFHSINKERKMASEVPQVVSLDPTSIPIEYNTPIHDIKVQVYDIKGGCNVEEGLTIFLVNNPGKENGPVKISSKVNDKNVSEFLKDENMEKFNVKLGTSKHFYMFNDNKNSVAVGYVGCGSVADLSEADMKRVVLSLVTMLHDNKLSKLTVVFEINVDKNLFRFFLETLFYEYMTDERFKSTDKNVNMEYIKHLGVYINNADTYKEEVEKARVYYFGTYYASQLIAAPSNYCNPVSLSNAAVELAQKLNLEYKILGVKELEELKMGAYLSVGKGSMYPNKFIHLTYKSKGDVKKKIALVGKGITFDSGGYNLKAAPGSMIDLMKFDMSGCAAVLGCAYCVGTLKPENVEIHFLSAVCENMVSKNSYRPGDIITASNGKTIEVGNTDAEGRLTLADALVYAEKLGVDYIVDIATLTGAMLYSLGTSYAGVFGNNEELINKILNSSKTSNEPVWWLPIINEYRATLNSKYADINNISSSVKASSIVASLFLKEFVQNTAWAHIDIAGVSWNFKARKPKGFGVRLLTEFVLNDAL

[2] = cells; type: functional, cell-based
[3] = cells; type: functional, cell-based; remark: listed apart in the source
[4] = biological target: Large T antigen (Simian virus 40, UniProt P03070); type: functional, Betapolyomavirus macacae;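 also: Confirmatory-stage PubChem screen for compounds that inhibit SV40 T antigen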
[5] = biological target: Voltage-dependent T-type calcium channel subunit alpha-1H (Homo sapiens, UniProt O95180); type: functional;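 also: channel activity triggered by adding a high calcium stimulation buffer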
[6] = biological target: Genome polyprotein (dengue virus type 2, UniProt P29990); assay: flavivirus cap methylation enzyme inhibition – biochemical, confirmation dose response, primary screen (AID 588689); type: functional
[7] = biological target: T2, Estrogen receptor (Homo sapiens, UniProt P03372);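 also: potency for inhibiting coactivator peptide recruitment to the receptor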
T2 sequence (P03372 whole entry): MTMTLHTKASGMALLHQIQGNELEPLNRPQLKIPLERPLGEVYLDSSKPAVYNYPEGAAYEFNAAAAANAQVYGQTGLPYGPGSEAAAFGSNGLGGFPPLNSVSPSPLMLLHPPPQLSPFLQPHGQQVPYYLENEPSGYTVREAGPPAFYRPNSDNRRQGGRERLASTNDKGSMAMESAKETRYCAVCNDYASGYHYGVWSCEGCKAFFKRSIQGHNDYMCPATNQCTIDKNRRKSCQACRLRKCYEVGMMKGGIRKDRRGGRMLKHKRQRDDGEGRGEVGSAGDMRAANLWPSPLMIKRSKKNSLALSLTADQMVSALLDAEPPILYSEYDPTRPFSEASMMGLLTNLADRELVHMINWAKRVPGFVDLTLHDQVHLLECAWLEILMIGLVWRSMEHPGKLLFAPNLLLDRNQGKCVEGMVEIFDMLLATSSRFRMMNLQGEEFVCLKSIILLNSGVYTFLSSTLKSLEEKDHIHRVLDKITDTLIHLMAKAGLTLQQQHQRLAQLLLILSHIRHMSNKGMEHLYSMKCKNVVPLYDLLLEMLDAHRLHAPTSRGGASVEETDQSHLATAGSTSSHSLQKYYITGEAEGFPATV

Chain of Voltage-dependent T-type calcium channel subunit alpha-1H (O95180 whole entry): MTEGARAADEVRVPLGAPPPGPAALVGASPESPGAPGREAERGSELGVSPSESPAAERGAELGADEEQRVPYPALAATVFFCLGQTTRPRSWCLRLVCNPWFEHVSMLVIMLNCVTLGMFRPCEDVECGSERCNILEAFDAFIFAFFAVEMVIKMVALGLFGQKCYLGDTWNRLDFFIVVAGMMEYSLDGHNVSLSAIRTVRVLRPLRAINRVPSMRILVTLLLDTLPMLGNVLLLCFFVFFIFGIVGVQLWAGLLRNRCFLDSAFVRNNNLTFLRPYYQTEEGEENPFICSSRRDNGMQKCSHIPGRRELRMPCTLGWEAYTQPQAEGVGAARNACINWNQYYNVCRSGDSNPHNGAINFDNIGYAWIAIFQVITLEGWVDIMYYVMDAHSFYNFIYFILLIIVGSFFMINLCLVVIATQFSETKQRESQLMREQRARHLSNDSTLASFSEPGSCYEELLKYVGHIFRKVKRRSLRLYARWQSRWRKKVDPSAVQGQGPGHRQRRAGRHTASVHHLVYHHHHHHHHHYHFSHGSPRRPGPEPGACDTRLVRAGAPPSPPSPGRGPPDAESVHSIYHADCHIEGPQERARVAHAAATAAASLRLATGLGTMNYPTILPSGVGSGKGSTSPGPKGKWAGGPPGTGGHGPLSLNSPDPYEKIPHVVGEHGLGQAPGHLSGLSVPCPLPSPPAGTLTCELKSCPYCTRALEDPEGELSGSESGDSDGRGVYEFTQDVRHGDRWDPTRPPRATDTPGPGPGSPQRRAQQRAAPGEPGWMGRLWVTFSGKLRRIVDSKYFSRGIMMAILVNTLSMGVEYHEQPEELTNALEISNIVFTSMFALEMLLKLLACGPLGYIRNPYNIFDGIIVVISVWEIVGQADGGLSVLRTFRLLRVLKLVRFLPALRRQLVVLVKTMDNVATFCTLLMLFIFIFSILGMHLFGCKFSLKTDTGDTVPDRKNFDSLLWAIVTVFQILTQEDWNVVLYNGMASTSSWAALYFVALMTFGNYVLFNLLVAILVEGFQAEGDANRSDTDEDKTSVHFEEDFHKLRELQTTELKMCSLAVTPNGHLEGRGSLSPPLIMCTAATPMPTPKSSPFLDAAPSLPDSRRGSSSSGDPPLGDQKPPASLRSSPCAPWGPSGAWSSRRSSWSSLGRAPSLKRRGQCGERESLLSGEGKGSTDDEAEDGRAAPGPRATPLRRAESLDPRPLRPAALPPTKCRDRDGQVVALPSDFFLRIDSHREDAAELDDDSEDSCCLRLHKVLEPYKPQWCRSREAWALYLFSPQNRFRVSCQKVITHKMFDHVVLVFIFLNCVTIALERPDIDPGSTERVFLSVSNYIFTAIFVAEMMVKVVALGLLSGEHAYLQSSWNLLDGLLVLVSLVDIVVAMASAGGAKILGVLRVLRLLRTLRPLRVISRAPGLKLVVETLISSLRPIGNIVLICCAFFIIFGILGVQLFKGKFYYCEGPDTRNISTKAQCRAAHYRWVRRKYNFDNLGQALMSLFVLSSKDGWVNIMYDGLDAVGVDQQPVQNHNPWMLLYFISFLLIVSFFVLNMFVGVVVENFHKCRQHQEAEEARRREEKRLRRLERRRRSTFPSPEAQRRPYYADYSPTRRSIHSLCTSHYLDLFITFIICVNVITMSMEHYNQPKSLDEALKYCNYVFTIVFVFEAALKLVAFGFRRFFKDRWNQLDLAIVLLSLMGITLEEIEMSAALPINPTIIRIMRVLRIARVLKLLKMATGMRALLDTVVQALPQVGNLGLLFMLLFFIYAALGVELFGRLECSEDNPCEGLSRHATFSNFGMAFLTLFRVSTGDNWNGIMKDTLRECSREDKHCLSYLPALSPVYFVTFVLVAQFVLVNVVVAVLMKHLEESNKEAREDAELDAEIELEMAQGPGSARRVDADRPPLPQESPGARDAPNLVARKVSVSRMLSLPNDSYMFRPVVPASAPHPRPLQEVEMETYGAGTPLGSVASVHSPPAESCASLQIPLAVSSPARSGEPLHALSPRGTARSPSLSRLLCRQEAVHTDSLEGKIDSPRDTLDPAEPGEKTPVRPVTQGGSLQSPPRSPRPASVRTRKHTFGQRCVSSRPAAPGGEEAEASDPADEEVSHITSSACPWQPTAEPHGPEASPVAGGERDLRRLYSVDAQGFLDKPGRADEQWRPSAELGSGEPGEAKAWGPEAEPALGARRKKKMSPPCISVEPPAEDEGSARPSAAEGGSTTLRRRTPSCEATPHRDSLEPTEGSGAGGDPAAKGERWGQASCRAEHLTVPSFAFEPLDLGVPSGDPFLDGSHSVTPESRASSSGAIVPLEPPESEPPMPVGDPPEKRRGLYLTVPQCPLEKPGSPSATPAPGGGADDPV
Chain of Large T antigen (P03070 whole entry): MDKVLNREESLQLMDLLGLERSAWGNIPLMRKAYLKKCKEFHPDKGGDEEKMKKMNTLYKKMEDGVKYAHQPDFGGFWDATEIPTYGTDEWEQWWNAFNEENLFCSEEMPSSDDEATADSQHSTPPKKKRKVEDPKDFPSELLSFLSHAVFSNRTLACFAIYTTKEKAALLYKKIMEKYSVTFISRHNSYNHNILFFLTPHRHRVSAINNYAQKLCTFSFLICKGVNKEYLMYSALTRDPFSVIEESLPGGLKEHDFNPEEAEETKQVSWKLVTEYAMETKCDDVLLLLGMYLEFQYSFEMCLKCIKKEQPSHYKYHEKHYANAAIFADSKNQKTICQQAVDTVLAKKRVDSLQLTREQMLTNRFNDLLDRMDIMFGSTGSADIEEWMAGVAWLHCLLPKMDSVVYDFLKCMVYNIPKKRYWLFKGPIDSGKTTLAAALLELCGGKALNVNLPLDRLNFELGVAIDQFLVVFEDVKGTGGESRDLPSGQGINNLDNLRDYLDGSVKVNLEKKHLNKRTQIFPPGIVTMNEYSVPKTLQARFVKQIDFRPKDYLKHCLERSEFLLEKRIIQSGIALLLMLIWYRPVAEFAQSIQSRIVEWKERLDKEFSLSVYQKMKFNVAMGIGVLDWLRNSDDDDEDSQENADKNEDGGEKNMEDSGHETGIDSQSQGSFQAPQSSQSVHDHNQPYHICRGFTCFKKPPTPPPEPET
Chain of Genome polyprotein (P29990 2492-3391 limits assumed): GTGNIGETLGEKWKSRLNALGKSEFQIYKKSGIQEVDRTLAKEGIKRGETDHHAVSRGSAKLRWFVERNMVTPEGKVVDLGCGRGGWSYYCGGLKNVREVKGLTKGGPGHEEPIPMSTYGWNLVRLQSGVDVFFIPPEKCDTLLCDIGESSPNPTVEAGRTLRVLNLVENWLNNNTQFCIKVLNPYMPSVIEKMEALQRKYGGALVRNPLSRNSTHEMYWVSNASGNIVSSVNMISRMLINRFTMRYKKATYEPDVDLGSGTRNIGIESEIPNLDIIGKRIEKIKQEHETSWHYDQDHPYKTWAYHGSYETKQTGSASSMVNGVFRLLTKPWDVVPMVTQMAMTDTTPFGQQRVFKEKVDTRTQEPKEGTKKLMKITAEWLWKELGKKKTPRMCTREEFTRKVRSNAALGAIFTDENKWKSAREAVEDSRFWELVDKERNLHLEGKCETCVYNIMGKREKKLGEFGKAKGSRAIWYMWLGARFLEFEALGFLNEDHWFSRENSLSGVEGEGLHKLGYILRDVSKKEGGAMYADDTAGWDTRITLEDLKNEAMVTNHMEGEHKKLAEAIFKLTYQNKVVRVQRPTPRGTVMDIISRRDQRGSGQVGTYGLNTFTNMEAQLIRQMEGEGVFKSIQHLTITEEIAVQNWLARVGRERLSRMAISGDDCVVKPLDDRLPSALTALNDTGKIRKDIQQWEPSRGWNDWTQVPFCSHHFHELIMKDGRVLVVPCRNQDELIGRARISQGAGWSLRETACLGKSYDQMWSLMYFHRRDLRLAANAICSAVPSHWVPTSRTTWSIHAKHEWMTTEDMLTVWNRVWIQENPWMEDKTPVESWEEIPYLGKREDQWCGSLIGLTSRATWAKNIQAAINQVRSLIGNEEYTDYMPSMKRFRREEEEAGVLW

For `Cc1ccc(NC2SC(=O)N(Cc3cccc(C(=O)O)c3)C2=O)cc1` (configuration not stated), the IC50 [1] was 6.86 µM (active).

For `COc1ccc(CSCC(=O)Nc2ccc(S(=O)(=O)N3CCCCCC3)cc2)cc1`, the EC50 [2] was > 350 µM (not active) and the EC50 [3] was > 350 µM (not active).

For `O=C(CCC(=O)N1CCN(c2ccc(O)cc2)CC1)c1cccs1`, the IC50 [4] was 5.54 µM (active).

In the case of `O=C(CCS(=O)(=O)c1ccc(Br)cc1)N1CCN(c2ccccc2Cl)CC1`, the EC50 [5] is reported as 4.8 µM (active).

For `NC(=O)COc1ccc(/C=C2\C(=O)ON=C2c2ccccc2)cc1`, the IC50 [6] was 67.7 µM (active).

In the case of `Cc1ccc2c(CC(=O)NCC3COc4ccccc4O3)coc2c1` (configuration not stated), the EC50 [5] is reported as 0.986 µM (active).

For `ON=CNc1cccc2nonc12`, the EC50 [2] was 98.8 µM (active) and the EC50 [3] was > 350 µM (not active).

With `O=C(Nc1ccc2nn(-c3ccccc3)nc2c1)c1ccc2c(c1)OCO2` the IC50 [7] was 6.3 µM (active).

With `Cc1ccccc1-c1nc(CS(=O)(=O)CC(=O)N(C)C2CCCCC2)c(C)o1` the EC50 [5] was 1.26 µM (active).

In the case of `Cc1nonc1NC(=O)CSc1nnc(-c2ccoc2C)n1-c1cccc(Cl)c1`, the EC50 [5] is reported as 7.83 µM (active).

With `CCOCC(=O)Nc1cccc(C(=O)OCC)c1` the IC50 [7] was > 50 µM (not active).

With `O=C(COc1ccccc1)N(Cc1cccc(F)c1)C1CCS(=O)(=O)C1` (configuration not stated) the EC50 [2] was > 350 µM (not active) and the EC50 [3] was > 350 µM (not active).

With `N#Cc1c(O)nc(S)nc1-c1ccccc1` the IC50 [1] was 15.7 µM (active).

With `CC1=C(C)CC(C(=O)NNC(=O)c2csc3c2CCC(C(C)(C)C)C3)C(C(=O)O)C1` (configuration not stated) the IC50 [1] was 8.98 µM (active).
